Source: PubChem BioAssay (NCI)
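A five-concentration, 48-hour dose response in 96-well plates underlies each endpoint, interpolated linearly between surrounding concentrations. The concentration for 50% growth inhibition is given as GI50. TGI marks complete inhibition of growth.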

What was measured:
Experiment in all cases: growth of human tumour cells (NCI), 48 h
HCC-2998 colon = test system: HCC-2998 colon
HCT-116 colon = test system: HCT-116 colon
KM12 colon = test system: KM12 colon
M14 melanoma = test system: M14 melanoma
SF-539 CNS = test system: SF-539 CNS
SK-MEL-2 melanoma = test system: SK-MEL-2 melanoma
SNB-19 CNS = test system: SNB-19 CNS
SNB-75 CNS = test system: SNB-75 CNS
MCF7 breast = test system: MCF7 breast
MDA-MB-231 breast = test system: MDA-MB-231 breast

Structure (SMILES)	TGI (HCC-2998 colon) [µM]	TGI (HCT-116 colon) [µM]	TGI (KM12 colon) [µM]	TGI (M14 melanoma) [µM]	TGI (SF-539 CNS) [µM]	TGI (SK-MEL-2 melanoma) [µM]	TGI (SNB-19 CNS) [µM]	TGI (SNB-75 CNS) [µM]	GI50 (HCC-2998 colon) [µM]	GI50 (HCT-116 colon) [µM]	GI50 (KM12 colon) [µM]	GI50 (M14 melanoma) [µM]	GI50 (MCF7 breast) [µM]	TGI (MCF7 breast) [µM]	GI50 (MDA-MB-231 breast) [µM]	TGI (MDA-MB-231 breast) [µM]	GI50 (SF-539 CNS) [µM]	GI50 (SNB-19 CNS) [µM]	GI50 (SNB-75 CNS) [µM]	GI50 (SK-MEL-2 melanoma) [µM]
CC(=O)Nc1cc(N(CCOS(C)(=O)=O)CCOS(C)(=O)=O)ccc1N=O	> 100	> 100	> 100	> 100	> 100	> 100	> 100	> 100												
COc1ccc(C(=O)c2cc(OC)c(OC)c(OC)c2)cc1/C=C/C(=O)c1ccc(OC)c(OC)c1	> 100	> 100	> 100	> 100	> 100		> 100	> 100	4.14	0.416	1.42	2.79	0.418	> 100	0.659	> 100	3.08	2.7	3.86	
CCOC(=O)C1C2CCC(C2)C1(CCl)C(=O)OCC (stereo not drawn)	> 100	> 100		> 100			> 100													
O=CNc1ncn[nH]1		> 100	> 100	> 100	> 100	> 100	> 100	> 100						> 100		> 100				
CC(=O)c1ccc(OCC(O)CO)cc1 (stereo not drawn)	> 100	33.5	> 100	> 100	> 100		> 100	> 100												
O=C(c1ccccc1)N1C2CCC1C(C(F)(F)F)=C2C(F)(F)F	> 100	> 100	> 100	> 100	> 100		> 100	> 100												
CC1COc2c(N3CCN(C)CC3)c(F)cc3c(=O)c(C(=O)O)cn1c23 (stereo not drawn)		> 100	> 100	> 100	> 100	> 100	> 100	> 100		> 100	> 100	> 100	> 100	> 100	81.7	> 100	> 100	> 100	> 100	> 100
N#Cc1c2c(c(N=P(c3ccccc3)(c3ccccc3)c3ccccc3)n3c1nc1ccccc13)CCCC2	> 100	> 100	> 100	> 100	> 100	70.4	99.2	69.7												
CC(/C(=N\Nc1ccccc1)c1ccc(O)cc1)C1C(=O)Oc2ccccc21 (stereo not drawn)	> 100	> 100	> 100	> 100	> 100	> 100	> 100	> 100												
NC(N)=N/N=C/c1c(-c2cc(Cl)sc2Cl)nc2sccn12	1.56		2.75	> 50	1.72	> 50			0.854		1.04	> 50	0.843	2.05	0.751	1.75	0.969			2.72
C=C(C)[C@@H]1CC[C@]2(C(=O)O)CC[C@]3(C)[C@H](CC[C@@H]4[C@@]5(C)C[C@@H](CC#Cc6ccc(C(F)(F)F)cc6)[C@H](O)C(C)(C)[C@@H]5CC[C@]43C)[C@@H]12	> 100	> 100	> 100			4.58	> 100	5.14	8.48	2.34	2.78		2.89	> 100				3.29	1.73	2.08
CNCc1cc(OC)ccc1-c1ccc(OC)c(OC)c1OC	> 100	> 100	> 100	> 100	> 100	> 100	> 100	> 96.7												
CC1C[C@H](C)CC(C(O)CC2CC(=O)N(Cc3ccccc3)C(=O)C2)C1O (stereo partly drawn)	> 100	> 100	> 100	> 100	> 100		> 100	> 100												
Cc1ccc2ncnc(N(CC(C)C)CC(C)C)c2c1	35.7	27.7	40	30.8		> 100	42.9		16.2		16.4	14.8	21.5	> 100				20.5		61.1
CCCCCCCCOCC(O)COC(=O)CCCCCCC (stereo not drawn)	> 100	> 100		> 100			> 100													
COc1cc(OC)c(/C=C\c2ccnc3ccccc23)c(OC)c1	23.9	13.3	16.5	15.2	12.4	19.4	18.2							21.4		15.4				
COc1ccc2c(c1)[n+](=O)c(C(=O)c1ccco1)c(C(F)(F)F)n2[O-]		15.1	32.6	6.72	15.6	> 100	45.5	25.6		0.851	4.48	2	3.82	> 100	3.01	13.2	3.41	4.25	3.83	24
CCOC(=O)CSC(=O)NCCCl	> 100	> 100	> 100	> 100	> 100	> 100	> 100	> 100												
NNC(=O)CNC(=O)c1ccc(Cl)cc1Cl	> 100	> 100	> 100	> 100	> 100		> 100	> 100												
COc1ccc(C2CC(c3cc(C)ccc3O)=NC(N)=N2)cc1 (stereo not drawn)	> 100	> 100	> 100	> 100	> 100		> 100	> 100												
OCC(O)C(O)C(O)c1nn(-c2ccc(Cl)cc2)c2nc3cc(Cl)c(Cl)cc3nc12 (stereo not drawn)	> 100	> 100		> 100	> 100	> 100	> 100	11.1												
